The target in this assay is T1, PDE4B2 (Homo sapiens, UniProt Q07343).
T1 construct: made in house; host or cells: SF21 insect cells (baculovirus; virus generated in SF9 cells)
Briefly: PDE4B2 [3H]cAMP SPA enzyme assay (inhibition of PDE4 activity). The format is biochemical. The following applies: recombinant PDE4B2 (GB no. M97515) expressed in SF21 insect cells; cAMP substrate; 37° C., 15 min; read-out: -log IC50(mol/l), Inhibition of the PDE4 activity (converted). The method, then:
The PDE4B2 (GB no. M97515) was a gift of Prof. M. Conti (Stanford University, USA). It was amplified from the original plasmid (pCMV5) via PCR with primers Rb9 (5′-[…]-3′) and Rb10 (5′-[…]-3′) and cloned into the pCR-Bac vector (Invitrogen, Groningen, NL).
The recombinant baculovirus was prepared by means of homologous recombination in SF9 insect cells. The expression plasmid was cotransfected with Bac-N-Blue (Invitrogen, Groningen, NL) or Baculo-Gold DNA (Pharmingen, Hamburg) using a standard protocol (Pharmingen, Hamburg). Wt virus-free recombinant virus supernatant was selected using plaque assay methods. After that, high-titre virus supernatant was prepared by amplifying 3 times. […]
The SF21 insect cells were resuspended, at a concentration of approx. 10^7 cells/ml, in ice-cold (° C.) homogenization buffer (20 mM Tris, pH 8.2, containing the following additions: 140 mM NaCl, 3.8 mM KCl, 1 mM EGTA, 1 mM MgCl2, 10 mM P-mercaptoethanol, 2 mM benzamidine, 0.4 mM Pefablock, 10 μM leupeptin, […] pepstatin A, 5 μM trypsin inhibitor) and disrupted by ultrasonication. […] The protein content was determined by the Bradford method (BioRad, Munich) using BSA as the standard. […]
Representative inhibitory values determined for the compounds according to the invention follow from the following table A, in which the numbers of the compounds correspond to the numbers of the Examples.

T1 sequence (Q07343 1-564 isoform Q07343-2): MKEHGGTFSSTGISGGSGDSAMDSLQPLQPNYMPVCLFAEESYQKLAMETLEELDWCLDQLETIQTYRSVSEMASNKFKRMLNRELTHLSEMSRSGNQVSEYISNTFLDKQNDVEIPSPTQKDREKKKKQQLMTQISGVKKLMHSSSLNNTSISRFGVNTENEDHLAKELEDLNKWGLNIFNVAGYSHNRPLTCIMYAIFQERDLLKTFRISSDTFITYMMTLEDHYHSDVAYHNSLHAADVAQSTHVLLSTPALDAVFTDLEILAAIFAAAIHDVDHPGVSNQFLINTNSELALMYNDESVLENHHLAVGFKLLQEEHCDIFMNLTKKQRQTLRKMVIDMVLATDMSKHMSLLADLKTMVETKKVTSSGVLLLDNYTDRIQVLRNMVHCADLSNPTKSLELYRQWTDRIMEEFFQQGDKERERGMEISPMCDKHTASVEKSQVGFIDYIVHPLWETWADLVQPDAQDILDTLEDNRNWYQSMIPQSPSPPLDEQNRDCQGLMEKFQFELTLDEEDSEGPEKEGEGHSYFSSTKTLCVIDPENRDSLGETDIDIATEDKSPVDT

Consider `COc1cc2c(cc1OCC(F)F)C1CC(O)CCC1N=C2c1ccc(F)cc1` (racemic) [Compound 1, (2RS,4aRS,10bRS)-9-(2,2-Difluoroethoxy)-6(4fluorophenyl)-8-methoxy-(1,2,3,4,4a,10b)-hexahydrophenanthridin-2-ol], for which the IC50 was 0.708 nM.

With `COc1cc2c(cc1OCC(F)F)[C@H]1C[C@H](O)CC[C@H]1N=C2c1ccc(C#N)cc1` (racemic) [Compound 3, 4-[(2RS,4aRS,10bRS)-9-(2,2-Difluoro-ethoxy)-2-hydroxy-8-methoxy-1,2,3,4,4a,10b-hexahydro-phenanthridin-6-yl]-benzonitrile], the IC50 is 1.82 nM.

(Values after patent US20070259909A1, “Novel Difluoroethoxy-Substituted Hydroxy-6-Phenylphenanthridines and Their Use as Pde4 Inhibitors” (ALTANA PHARMA AG, priority 2004, published 2007).)
